In US20150259344A1, “IMIDAZOLE DERIVATIVE” (DAINIPPON SUMITOMO PHARMA CO., LTD., priority 2012, published 2015):

What was measured:
[1] = system: Slc:ddY mice; assay: Novel object recognition test in mice (mORT), evaluation of cognitive function; assay type: in vivo; conditions: 3 mg/kg (oral), administered prior to the 1st trial, 2nd trial 24 hours after
Procedure: Evaluation of Cognitive Function with Mice in Novel Object Recognition Test (Hereinafter. Referred to as “mORT”)
Slc:ddY mice (25 to 30 g, male, Japan SLC) can be used in the novel object recognition test wherein the interval between the 1st trial (training) and the 2nd trial (test) correlates with the memory loss for the objects used in the 1st trial, and a significant memory-loss is observed when the 2nd trial is performed 24 hours after the 1st trial. According to the test mechanism, the present compounds were administered prior to the 1st trial, and the enhancement effect on memory in the 2nd trial was evaluated.

[2] = biological target: T1, human α7 nAChR (Homo sapiens, UniProt P36544); assay: Evaluation of PAM activity with human α7 nACh receptor stably expressing cells (aequorin luminescence, FDSS7000); assay type: cell-based; conditions: 10 μM test compound; ACh at EC20; ratio of RLU (Max-Min) to control wells; read-out: α7PAM (%) @10 μM
T1 construct: expressed in transfected cells
T1 sequence (P36544 23-502): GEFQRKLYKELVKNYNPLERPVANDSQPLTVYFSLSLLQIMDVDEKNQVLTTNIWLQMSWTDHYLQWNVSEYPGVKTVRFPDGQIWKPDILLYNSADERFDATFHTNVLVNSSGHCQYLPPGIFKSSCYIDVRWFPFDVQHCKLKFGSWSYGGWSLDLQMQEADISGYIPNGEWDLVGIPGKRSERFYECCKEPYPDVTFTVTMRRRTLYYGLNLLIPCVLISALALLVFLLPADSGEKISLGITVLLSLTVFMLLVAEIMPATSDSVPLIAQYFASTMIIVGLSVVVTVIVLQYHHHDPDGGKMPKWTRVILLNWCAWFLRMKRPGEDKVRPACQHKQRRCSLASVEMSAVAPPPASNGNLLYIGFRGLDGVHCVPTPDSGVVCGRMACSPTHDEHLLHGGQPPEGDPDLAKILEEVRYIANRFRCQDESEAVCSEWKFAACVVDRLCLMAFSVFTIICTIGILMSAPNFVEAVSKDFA
Procedure, shortened: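 Human α7 nAChR stable cells loaded with 4 μM Viviren (final) for 4 h at room temperature in the dark. Compounds in Hanks/20 mM HEPES/0.2% BSA were added and luminescence recorded on FDSS7000. PAM activity = RLU (Max-Min) ratio of test wells to control wells.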

[3] = system: Slc:Wistar rats; assay: Y-shaped maze test in rats (Y-maze test), scopolamine-induced cognitive impairment; assay type: in vivo; conditions: 3 mg/kg (oral), treated prior to 0.6 mg/kg scopolamine HBr s.c.
Procedure: Evaluation on Improvement Against Cognitive Impairment with Rats in Y-Shaped Maze Test (Hereinafter, Referred to as “Y-Maze Test”)
In Y-maze test, 0.6 mg/kg scopolamine HBr (cat#S0929, Sigma Aldrich, Japan) can be subcutaneously administered to Slc:Wistar rats (280 to 300 g, male, Japan SLC) to cause cognitive impairment and decrease the percentage of spontaneous alternation behavior. According to the test mechanism, the present compounds were treated prior to the administration of scopolamine, and the improvement effect on cognitive impairment is evaluated.

In the case of `O=C(NC1CCCCC1)N1CCC(n2cnc(-c3cccc(F)c3)c2)CC1` [Example 1, N-Cyclohexyl-4-[4-(3-fluorophenyl)-1H-imidazol-1-yl]piperidine-1-carboxamide], the “enhancement effect on memory in the 2nd trial (mORT)” value [1] is reported as “significant memory enhancing effect”, the activity at 10 µM [2] is reported as 836% and the “improvement effect on cognitive impairment (Y-maze, spontaneous alternation behavior)” value [3] is reported as “significant improvement effect on memory disorder”.

With `CC(C)(F)C(=O)N[C@H]1CC[C@@H](n2cnc(-c3ccc(F)cc3)c2Cl)CC1` [Example 183, N-{cis-4-[5-chloro-4-(4-fluorophenyl)-1H-imidazol-1-yl]cyclohexyl}-2-fluoro-2-methylpropanamide] the “enhancement effect on memory in the 2nd trial (mORT)” value [1] was “significant memory enhancing effect”, the activity at 10 µM [2] was 791% and the “improvement effect on cognitive impairment (Y-maze, spontaneous alternation behavior)” value [3] was “significant improvement effect on memory disorder”.
